The conditions of the series: Liquid.

Values joined by “and” are separate entries in the source; they are usually repeats but may differ in a detail not shown here. Equal entries are not always repeated. Numbers after ± are expanded uncertainties.

Broadly, the speed of sound is the propagation velocity of pressure waves in the medium. One may read the mass density as the mass of a sample divided by its volume. A word on the viscosity: it is the internal friction of a fluid under shear. For the molecule `C1CCCCC1` [cyclohexane], the speed of sound reads like this: (293.15 K, 7 kPa) 1279 ± 3 m/s; (293.15 K, 101 kPa) 1279 ± 3 m/s; (298.15 K, 7 kPa) 1254 ± 3 m/s; (298.15 K, 101 kPa) 1254 ± 3 m/s; (303.15 K, 7 kPa) 1230 ± 3 m/s; (303.15 K, 101 kPa) 1230 ± 3 m/s. In addition, the mass density (293.15 K, 101 kPa) was determined as 778.62 ± 0.48 kg/m3; the mass density (298.15 K, 101 kPa) is 773.92 ± 0.49 kg/m3; the mass density (303.15 K, 101 kPa) is given as 769.19 ± 0.49 kg/m3. Moreover, the viscosity turned out to be 0.968 ± 0.024 mPa·s (293.15 K, 101 kPa); 0.887 ± 0.022 mPa·s (298.15 K, 101 kPa); 0.816 ± 0.021 mPa·s (303.15 K, 101 kPa).

For the molecule `C1CCCC1` [cyclopentane], the mass density reads like this: (293.15 K, 101 kPa) 744.52 ± 0.65 kg/m3; (298.15 K, 101 kPa) 739.55 ± 0.65 kg/m3; (303.15 K, 101 kPa) 734.54 ± 0.66 kg/m3. The speed of sound was 1232 ± 3 m/s (293.15 K, 101 kPa); 1206 ± 3 m/s (298.15 K, 101 kPa); 1180 ± 3 m/s (303.15 K, 101 kPa). The viscosity is 0.438 ± 0.013 mPa·s and 0.439 ± 0.013 mPa·s (293.15 K, 101 kPa); 0.416 ± 0.012 mPa·s (298.15 K, 101 kPa); 0.394 ± 0.012 mPa·s (303.15 K, 101 kPa).

As to `CCCC(C)O` (configuration not stated) [pentan-2-ol], the speed of sound by setting is: (293.15 K, 7 kPa) 1250 ± 3 m/s; (293.15 K, 101 kPa) 1250 ± 3 m/s; (298.15 K, 7 kPa) 1232 ± 3 m/s; (298.15 K, 101 kPa) 1232 ± 3 m/s; (303.15 K, 7 kPa) 1214 ± 3 m/s; (303.15 K, 101 kPa) 1214 ± 3 m/s. Further, the mass density reads like this: (293.15 K, 101 kPa) 809.04 ± 0.47 kg/m3; (298.15 K, 101 kPa) 805.01 ± 0.48 kg/m3; (303.15 K, 101 kPa) 800.9 ± 0.48 kg/m3. Also, the viscosity reads like this: (293.15 K, 101 kPa) 4.001 ± 0.093 mPa·s; (298.15 K, 101 kPa) 3.273 ± 0.077 mPa·s; (303.15 K, 101 kPa) 2.774 ± 0.066 mPa·s.

For the molecule `CC(C)O` [propan-2-ol], the mass density by setting is: (293.15 K, 101 kPa) 785.07 ± 0.48 kg/m3; (298.15 K, 101 kPa) 780.87 ± 0.48 kg/m3; (303.15 K, 101 kPa) 776.6 ± 0.49 kg/m3. Also, the speed of sound by setting is: (293.15 K, 101 kPa) 1156 ± 3 m/s; (298.15 K, 101 kPa) 1139 ± 2 m/s; (303.15 K, 101 kPa) 1121 ± 2 m/s. Besides, the viscosity (293.15 K, 101 kPa) came to 2.382 ± 0.056 mPa·s; the viscosity (298.15 K, 101 kPa) was found to be 2.045 ± 0.049 mPa·s; the viscosity (303.15 K, 101 kPa) amounted to 1.763 ± 0.043 mPa·s.

The values are drawn from the NIST ThermoML archive (doi:10.1021/je050540h).
